In US7329655B2, “Nitrogenous heterocyclic compounds” (Millennium Pharmaceuticals, Inc., priority 2000, dated 2008):
pIC50: −log10 of the molar value.

What was measured:
endogenous β-PDGFR = target: T1, endogenous β-PDGFR (Homo sapiens, UniProt P09619); assay: MG63 phosphorylation assay; assay type: cell-based; settings: MG63 human osteosarcoma cells, PDGF-BB stimulation in the presence of 45% human plasma; inhibition of PDGF receptor phosphorylation; read-out: MG63 w/human plasma IC50
T1 construct: This assay is for measuring endogenous β-PDGFR phosphorylation in MG63 cells; host or cells: MG63 human osteosarcoma cells

human β-PDGFR = target: T2, human β-PDGFR (Homo sapiens, UniProt P09619); assay: HR5 phosphorylation assay; assay type: cell-based; settings: HR5 cells (CHO overexpressing human β-PDGFR), 8 nM PDGF BB; inhibition of PDGF receptor phosphorylation
T2 construct: host or cells: CHO cells (HR5 line)
Experimental: The HR5 cell line is a cell line of CHO cells engineered to overexpress human β-PDGFR, which cell line is available from the ATCC. The expression level of β-PDGFR in HR5 cells is around 5×10^4 receptor per cell. For the phosphorylation assay according to the invention, HR5 cells were grown to confluency in 96-well microtiter plates under standard tissue culture conditions, followed by serum-starvation for 16 hours. Quiescent cells were incubated at 37° C. without or with increasing concentrations of the test compound (0.01-30 uM) for 30 minutes followed by the addition of 8 nM PDGF BB for 10 minutes. Cells were lysed in 100 mM Tris, pH 7.5, 750 mM NaCl, 0.5% Triton X-100, 10 mM sodium pyrophosphate, 50 mM NaF, 10 ug/ml aprotinin, […] leupeptin, 1 mM phenylmethylsulfonyl fluoride, 1 mM sodium vanadate, and the lysate was cleared by centrifugation at 15,000×g for 5 minutes. Clarified lysates were transferred into a second microtiter plate in which the wells were previously coated with 500 ng/well of 1B5B11 anti-β-PDGFR mAb, and then incubated for two hours at room temperature. […] Wells were washed prior to adding ABTS (Sigma), and the rate of substrate formation was monitored at 650 nm. […]

T1 sequence (P09619 33-1106): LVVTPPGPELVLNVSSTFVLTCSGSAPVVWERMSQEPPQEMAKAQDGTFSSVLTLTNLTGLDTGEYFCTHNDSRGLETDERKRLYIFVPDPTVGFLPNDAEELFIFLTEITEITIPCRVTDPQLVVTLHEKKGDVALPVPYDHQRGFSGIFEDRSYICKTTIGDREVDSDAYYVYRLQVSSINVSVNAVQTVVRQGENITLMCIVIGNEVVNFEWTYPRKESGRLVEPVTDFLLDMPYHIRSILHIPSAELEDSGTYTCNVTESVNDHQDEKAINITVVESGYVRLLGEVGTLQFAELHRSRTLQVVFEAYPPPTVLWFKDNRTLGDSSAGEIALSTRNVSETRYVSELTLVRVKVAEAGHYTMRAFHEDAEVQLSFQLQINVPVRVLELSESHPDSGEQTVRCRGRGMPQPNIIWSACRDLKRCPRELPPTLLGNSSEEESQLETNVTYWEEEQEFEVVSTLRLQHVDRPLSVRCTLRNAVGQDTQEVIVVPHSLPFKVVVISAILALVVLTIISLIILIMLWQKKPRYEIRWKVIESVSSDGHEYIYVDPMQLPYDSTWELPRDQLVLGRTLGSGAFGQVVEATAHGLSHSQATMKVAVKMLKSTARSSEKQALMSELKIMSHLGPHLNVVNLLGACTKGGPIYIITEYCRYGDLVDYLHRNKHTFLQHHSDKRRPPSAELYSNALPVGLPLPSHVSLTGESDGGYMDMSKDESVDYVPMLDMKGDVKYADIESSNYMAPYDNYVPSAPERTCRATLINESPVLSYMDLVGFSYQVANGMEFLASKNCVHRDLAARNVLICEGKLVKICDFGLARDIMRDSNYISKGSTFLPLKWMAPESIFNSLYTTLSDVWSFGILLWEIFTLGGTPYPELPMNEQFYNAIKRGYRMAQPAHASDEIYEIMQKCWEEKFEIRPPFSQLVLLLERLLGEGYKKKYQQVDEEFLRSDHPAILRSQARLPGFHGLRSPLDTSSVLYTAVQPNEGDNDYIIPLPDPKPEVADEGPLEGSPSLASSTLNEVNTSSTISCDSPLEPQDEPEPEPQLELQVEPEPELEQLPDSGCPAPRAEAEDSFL
T2 sequence (P09619 33-1106): as above

SMILES | pIC50 (endogenous β-PDGFR) | pIC50 (human β-PDGFR)
COc1cc2c(N3CCN(C(=S)NCc4cnc(C)cn4)CC3)ncnc2cc1OCCN1CCCCC1 [Example 2, {4-[6-methoxy-7-(2-piperidylethoxy)quinazolin-4-yl]piperazinyl}{[(5-methylpyrazin-2-yl)methyl]amino}methane-1-thione] | 7.33 | 7.70
COc1cc2c(N3CCN(C(=S)NCc4ccc5c(c4)OCO5)CC3)ncnc2cc1OCCN1CCCCC1 [Example 1] | 6.89 | 7.30
